Measured values from US20240208992A1, “MACROCYCLES AS CFTR MODULATORS” (Idorsia Pharmaceuticals Ltd, priority 2021, published 2024).

Molecular target: human F508del-CFTR (Homo sapiens, UniProt P13569, DEL508-508)
Assay: F508del-CFTR cell surface expression (corrector activity), DiscoveRx ß-galactosidase complementation chemiluminescence assay in recombinant U2OS cell line;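 also: U2OS cells co-expressing ProLink-tagged F508del-CFTR and a membrane-anchored enzyme acceptor, where more surface CFTR restores β-galactosidase activity measured by chemiluminescence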
Conditions: for EC50: EC50, F508del-CFTR cell surface expression
[1] = U2OS cells, 16h compound incubation, geomean of several measurements
[2] = U2OS, in relation to the Emax of the corrector lumacaftor (=100%), U2OS cells, 16h compound incubation, arithmetic mean
[3] = U2OS cells, 16h compound incubation, geomean values
[4] = U2OS, in relation to Emax of corrector lumacaftor (=100%), arithmetic mean values
[5] = U2OS cell line, 16h compound incubation, geomean values
[6] = U2OS, in relation to the Emax of the corrector lumacaftor (=100%), U2OS cell line, 16h compound incubation, arithmetic mean values

Sequence of human F508del-CFTR (P13569 with tags, fused parts or gaps DEL508-508): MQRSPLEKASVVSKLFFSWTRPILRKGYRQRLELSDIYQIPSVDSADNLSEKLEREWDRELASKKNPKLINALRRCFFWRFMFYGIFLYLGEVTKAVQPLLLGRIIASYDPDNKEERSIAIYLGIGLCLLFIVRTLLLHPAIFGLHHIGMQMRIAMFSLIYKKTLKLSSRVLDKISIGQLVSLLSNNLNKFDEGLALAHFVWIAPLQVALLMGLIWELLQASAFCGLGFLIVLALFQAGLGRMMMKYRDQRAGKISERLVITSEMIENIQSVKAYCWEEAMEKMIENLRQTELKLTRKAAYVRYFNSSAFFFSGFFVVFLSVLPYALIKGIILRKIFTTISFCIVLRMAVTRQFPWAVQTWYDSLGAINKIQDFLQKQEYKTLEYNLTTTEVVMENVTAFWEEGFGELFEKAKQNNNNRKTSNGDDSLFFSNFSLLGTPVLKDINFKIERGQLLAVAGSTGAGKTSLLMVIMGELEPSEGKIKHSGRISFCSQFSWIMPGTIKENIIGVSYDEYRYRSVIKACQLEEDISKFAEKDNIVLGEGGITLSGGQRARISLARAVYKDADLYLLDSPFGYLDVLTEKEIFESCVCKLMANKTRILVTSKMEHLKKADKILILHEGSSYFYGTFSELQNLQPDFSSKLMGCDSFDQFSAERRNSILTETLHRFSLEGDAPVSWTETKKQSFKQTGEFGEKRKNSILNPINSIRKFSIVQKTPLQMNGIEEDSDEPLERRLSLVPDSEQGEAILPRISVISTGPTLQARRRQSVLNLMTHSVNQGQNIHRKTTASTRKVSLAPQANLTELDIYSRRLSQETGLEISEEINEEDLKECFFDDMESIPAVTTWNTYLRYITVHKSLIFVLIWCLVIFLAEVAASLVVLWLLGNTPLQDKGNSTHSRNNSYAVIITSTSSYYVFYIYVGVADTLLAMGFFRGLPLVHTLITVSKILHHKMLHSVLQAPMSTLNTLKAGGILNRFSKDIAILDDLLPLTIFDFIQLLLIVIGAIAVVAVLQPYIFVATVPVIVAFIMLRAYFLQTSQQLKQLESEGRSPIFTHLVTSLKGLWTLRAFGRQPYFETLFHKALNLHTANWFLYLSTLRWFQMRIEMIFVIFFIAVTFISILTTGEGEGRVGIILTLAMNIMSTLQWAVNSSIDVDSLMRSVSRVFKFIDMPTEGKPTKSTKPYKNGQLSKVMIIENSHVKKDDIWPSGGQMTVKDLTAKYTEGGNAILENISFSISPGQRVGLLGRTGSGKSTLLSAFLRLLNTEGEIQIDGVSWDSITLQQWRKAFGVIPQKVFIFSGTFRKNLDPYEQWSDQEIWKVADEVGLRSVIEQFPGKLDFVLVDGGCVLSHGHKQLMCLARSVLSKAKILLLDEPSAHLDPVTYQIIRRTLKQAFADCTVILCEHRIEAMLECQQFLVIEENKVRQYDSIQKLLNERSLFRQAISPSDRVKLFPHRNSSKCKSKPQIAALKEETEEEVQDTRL

SMILES | EC50 [3] | Emax [4] | other results
COc1cc(CCNC(=O)[C@@H]2CC(=O)N(C)[C@@H](CC(C)C)C(=O)N3CCCC[C@@H]3C(=O)N[C@H](Cc3ccccc3)COc3ccc4ncc(F)cc4c3C(=O)N2)on1 (single isomer, unassigned) [Example 899] |  |  | EC50 [1]: 0.819 µM; Emax [2]: 294%
COCCc1ccc(-c2noc(C[C@@H]3C(=O)N[C@H](Cc4ccccc4)COc4ccnc(OC)c4C(=O)N[C@H](C(=O)NCCn4ncc(C5CC5)n4)CC(=O)N(C)[C@@H](CC(C)C)C(=O)N3C)n2)cc1 [Example 871, (3R,6R,9S,13S)-3-benzyl-N-(2-(4-cyclopropyl-2H-1,2,3-triazol-2-yl)ethyl)-9-isobutyl-16-methoxy-6-((3-(4-(2-methoxyethyl)phenyl)-1,2,4-oxadiazol-5-yl)methyl)-7,10-dimethyl-5,8,11,15-tetraoxo-2,3,4,5,6,7,8,9,10,11,12,13,14,15-tetradecahydropyrido[3,4-p][1]oxa[4,7,10,14]tetraazacycloheptadecine-13-carboxamide] |  |  | EC50 [1]: 0.032 µM; Emax [2]: 378%
COc1cccc(CCNC(=O)[C@@H]2CC(=O)N(C)[C@@H](CC(C)C)C(=O)N3CCN(S(=O)(=O)c4ccccc4)C[C@@H]3C(=O)N[C@H](Cc3ccccc3)COc3ccc4ccccc4c3C(=O)N2)c1 [Example 729, (4aR,7R,18S,22S)-7-benzyl-22-isobutyl-N-(3-methoxyphenethyl)-21-methyl-5,16,20,23-tetraoxo-3-(phenylsulfonyl)-2,3,4,4a,5,6,7,8,16,17,18,19,20,21,22,23-hexadecahydro-1H-naphtho[1,2-p]pyrazino[2,1-f][1]oxa[4,7,10,14]tetraazacycloheptadecine-18-carboxamide] | 0.1 µM | 258% | 
COc1cccc(CCNC(=O)[C@@H]2CC(=O)N(C)[C@@H](CC(C)C)C(=O)N3CCN(S(=O)(=O)c4cccnc4)C[C@@H]3C(=O)N[C@H](Cc3ccccc3)COc3ccc4ccccc4c3C(=O)N2)c1 [Example 742, (4aR,7R,18S,22S)-7-benzyl-22-isobutyl-N-(3-methoxyphenethyl)-21-methyl-5,16,20,23-tetraoxo-3-(pyridin-3-ylsulfonyl)-2,3,4,4a,5,6,7,8,16,17,18,19,20,21,22,23-hexadecahydro-1H-naphtho[1,2-p]pyrazino[2,1-f][1]oxa[4,7,10,14]tetraazacycloheptadecine-18-carboxamide] | 0.214 µM | 246% | 
COc1cccc(CCNC(=O)[C@@H]2CC(=O)N(C)[C@@H](CC(C)C)C(=O)N3CCCC[C@H]3C(=O)N[C@H](Cc3ccccc3)COc3ccc4nc(C)oc4c3C(=O)N2)c1 [Example 615, (8S,12S,18aS,21R)-21-benzyl-12-isobutyl-N-(3-methoxyphenethyl)-4,11-dimethyl-6,10,13,19-tetraoxo-6,7,8,9,10,11,12,13,16,17,18,18a,19,20,21,22-hexadecahydro-15H-oxazolo[4′,5′:5,6]benzo[1,2-p]pyrido[2,1-f][1]oxa[4,7,10,14]tetraazacycloheptadecine-8-carboxamide] | 0.465 µM | 170% | 
Cc1cc(CCNC(=O)[C@@H]2CC(=O)N(C)[C@@H](CC(C)C)C(=O)N(C)[C@H](COCc3ccccc3)C(=O)N[C@H](Cc3ccccc3)COc3ccc4ccccc4c3C(=O)N2)on1 [Example 714, (3S,7S,10R,13R)-13-benzyl-10-((benzyloxy)methyl)-7-isobutyl-6,9-dimethyl-N-(2-(3-methylisoxazol-5-yl)ethyl)-1,5,8,11-tetraoxo-1,2,3,4,5,6,7,8,9,10,11,12,13,14-tetradecahydronaphtho[1,2-p][1]oxa[4,7,10,14]tetraazacycloheptadecine-3-carboxamide] | 0.036 µM | 410% | 
COCCS(=O)(=O)N1CCN2C(=O)[C@H](CC(C)C)N(C)C(=O)C[C@@H](C(=O)NCCc3cccc(OC)c3)NC(=O)c3c(ccc4ccccc34)OC[C@@H](Cc3ccccc3)NC(=O)[C@H]2C1 [Example 733, (4aR,7R,18S,22S)-7-benzyl-22-isobutyl-3-((2-methoxyethyl)sulfonyl)-N-(3-methoxyphenethyl)-21-methyl-5,16,20,23-tetraoxo-2,3,4,4a,5,6,7,8,16,17,18,19,20,21,22,23-hexadecahydro-1H-naphtho[1,2-p]pyrazino[2,1-f][1]oxa[4,7,10,14]tetraazacycloheptadecine-18-carboxamide] | 0.349 µM | 235% | 
COc1cccc2c1C(=O)N[C@H](C(=O)NCCc1cnccn1)CC(=O)N(C)[C@@H](CC(C)C)C(=O)N(CCC1CCCCC1)CC(=O)N[C@H](Cc1ccccc1)CO2 [Example 18, (3R,9S,13S)-3-benzyl-7-(2-cyclohexylethyl)-9-isobutyl-16-methoxy-10-methyl-5,8,11,15-tetraoxo-N-(2-(pyrazin-2-yl)ethyl)-2,3,4,5,6,7,8,9,10,11,12,13,14,15-tetradecahydrobenzo[p][1]oxa[4,7,10,14]tetraazacycloheptadecine-13-carboxamide] |  |  | EC50 [5]: 0.388 µM; Emax [6]: 117%
CCOc1cccc(CCNC(=O)[C@@H]2CC(=O)N(C)[C@@H](CC(C)C)C(=O)N(C)CC(=O)N[C@H](Cc3ccccc3)COc3cc(OC)c(OC)cc3C(=O)N2)c1 [Example 194, (3R,9S,13S)-3-benzyl-N-(3-ethoxyphenethyl)-9-isobutyl-17,18-dimethoxy-7,10-dimethyl-5,8,11,15-tetraoxo-2,3,4,5,6,7,8,9,10,11,12,13,14,15-tetradecahydrobenzo[p][1]oxa[4,7,10,14]tetraazacycloheptadecine-13-carboxamide] |  |  | EC50 [5]: 0.613 µM; Emax [6]: 178%
Cc1cc(CCNC(=O)[C@@H]2CC(=O)N(C)[C@@H](CC(C)C)C(=O)N(C)[C@H](C)C(=O)N[C@H](Cc3ccccc3)COc3cnc4ccccc4c3C(=O)N2)on1 [Example 573, (3S,7S,10R,13R)-13-benzyl-7-isobutyl-6,9,10-trimethyl-N-(2-(3-methylisoxazol-5-yl)ethyl)-1,5,8,11-tetraoxo-1,2,3,4,5,6,7,8,9,10,11,12,13,14-tetradecahydro-[1]oxa[4,7,10,14]tetraazacycloheptadecino[17,16-c]quinoline-3-carboxamide] | 0.423 µM | 306% | 
COc1cccc(CCNC(=O)[C@@H]2CC(=O)N(C)[C@@H](CC(C)C)C(=O)N(C)CC(=O)N[C@H](Cc3ccccc3)COc3cc4ccccc4cc3C(=O)N2)c1 [Example 238, (3R,9S,13S)-3-benzyl-9-isobutyl-N-(3-methoxyphenethyl)-7,10-dimethyl-5,8,11,15-tetraoxo-2,3,4,5,6,7,8,9,10,11,12,13,14,15-tetradecahydronaphtho[2,3-p][1]oxa[4,7,10,14]tetraazacycloheptadecine-13-carboxamide] |  |  | EC50 [5]: 0.375 µM; Emax [6]: 153%
COc1cccc(CCNC(=O)[C@@H]2CC(=O)N(C)[C@@H](CC(C)C)C(=O)N(C)[C@H](C)C(=O)N[C@H](Cc3ccccc3)COc3ccnc(OC)c3C(=O)N2)c1 [Example 768, (3R,6R,9S,13S)-3-benzyl-9-isobutyl-16-methoxy-N-(3-methoxyphenethyl)-6,7,10-trimethyl-5,8,11,15-tetraoxo-2,3,4,5,6,7,8,9,10,11,12,13,14,15-tetradecahydropyrido[3,4-p][1]oxa[4,7,10,14]tetraazacycloheptadecine-13-carboxamide] | 0.497 µM | 292% | 
COc1cc2c(cn1)OC[C@@H](Cc1ccccc1)NC(=O)[C@H]1CCCCN1C(=O)[C@H](CC(C)C)N(C)C(=O)C[C@@H](C(=O)NCCc1cc(C3CC3)on1)NC2=O [Example 526, (7S,11S,17aR,20R)-20-benzyl-N-(2-(5-cyclopropylisoxazol-3-yl)ethyl)-11-isobutyl-3-methoxy-10-methyl-5,9,12,18-tetraoxo-5,6,7,8,9,10,11,12,15,16,17,17a,18,19,20,21-hexadecahydro-14H-dipyrido[2,1-f:4′,3′-p][1]oxa[4,7,10,14]tetraazacycloheptadecine-7-carboxamide] | 0.394 µM |  | Emax (in relation to Emax of corrector lumacaftor (=100%), arithmetic mean values): 167%
COc1cccc(CCNC(=O)[C@@H]2CC(=O)N(C)[C@@H](CC(C)C)C(=O)N(C)[C@@H](CO)C(=O)N[C@H](Cc3ccccc3)COc3ccc4ccccc4c3C(=O)N2)c1 (mixture of isomers) [Example 718, (3S,7S,10RS,13R)-13-benzyl-10-(hydroxymethyl)-7-isobutyl-N-(3-methoxyphenethyl)-6,9-dimethyl-1,5,8,11-tetraoxo-1,2,3,4,5,6,7,8,9,10,11,12,13,14-tetradecahydronaphtho[1,2-p][1]oxa[4,7,10,14]tetraazacycloheptadecine-3-carboxamide] | 0.359 µM |  | 
COc1cccc(CCNC(=O)[C@@H]2CC(=O)N(C)[C@@H](CC(C)C)C(=O)N(C)C3(CC3)C(=O)N[C@H](Cc3ccccc3)COc3cnc4ccccc4c3C(=O)N2)c1 [Example 433, (3′S,7′S,13′R)-13′-benzyl-7′-isobutyl-N-(3-methoxyphenethyl)-6′,9′-dimethyl-1′,5′,8′,11′-tetraoxo-2′,3′,4′,5′,6′,7′,8′,9′,11′,12′,13′,14′-dodecahydro-1′H-spiro[cyclopropane-1,10′-[1]oxa[4,7,10,14]tetraazacycloheptadecino[17,16-c]quinoline]-3′-carboxamide] | 0.167 µM | 344% | 
COc1cccc(CCNC(=O)[C@@H]2CC(=O)N(C)[C@@H](CC(C)C)C(=O)N(CCC3CCCCC3)CC(=O)N[C@H](Cc3ccccc3)COc3cccc(OC)c3C(=O)N2)n1 [Example 220, (3R,9S,13S)-3-benzyl-7-(2-cyclohexylethyl)-9-isobutyl-16-methoxy-N-(2-(6-methoxypyridin-2-yl)ethyl)-10-methyl-5,8,11,15-tetraoxo-2,3,4,5,6,7,8,9,10,11,12,13,14,15-tetradecahydrobenzo[p][1]oxa[4,7,10,14]tetraazacycloheptadecine-13-carboxamide] |  |  | EC50 [5]: 0.258 µM; Emax [6]: 103%
